According to PubChem BioAssay AID248 (DTP/NCI, 2004):
Where “and” joins values, the source holds several entries; their conditions need not be identical. Equal values may be shown once. Inconclusive results and toxic doses are left out. Cut-off read from the data, not from the text of the source: active = T/C of 150% or more; inactive = T/C below 125%.

Test system: L1210 leukemia ip in BDF1 mice, survival T/C
Test: NCI In Vivo Anticancer Drug Screen. Data for tumor model L1210 Leukemia (intraperitoneal) in B6D2F1 (BDF1) mice
Details: endpoint: mean survival time, higher = longer survival
Method in brief: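 Transplantable tumor model; survival measured in treated vs vehicle control mice. Value = treated/control.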

[1] = dose: 100.0 mg/kg/injection, schedule: Q01DX009 (ip), vehicle: saline
[2] = dose: 100.0 mg/kg/injection, schedule: Q04DX003 (ip), vehicle: saline
[3] = dose: 200.0 mg/kg/injection, schedule: Q04DX003 (ip), vehicle: saline
[4] = dose: 400.0 mg/kg/injection, schedule: Q04DX003 (ip), vehicle: saline
[5] = dose: 100.0 mg/kg/injection, schedule: Q01DX001 (ip), vehicle: Klucel (hydroxypropylcellulose) (HPC)
[6] = dose: 100.0 mg/kg/injection, schedule: Q01DX009 (ip), vehicle: Klucel (hydroxypropylcellulose) (HPC)
[7] = dose: 100.0 mg/kg/injection, schedule: Q04DX003 (ip), vehicle: Klucel (hydroxypropylcellulose) (HPC)
[8] = dose: 200.0 mg/kg/injection, schedule: Q01DX001 (ip), vehicle: Klucel (hydroxypropylcellulose) (HPC)
[9] = dose: 200.0 mg/kg/injection, schedule: Q01DX009 (ip), vehicle: Klucel (hydroxypropylcellulose) (HPC)
[10] = dose: 200.0 mg/kg/injection, schedule: Q04DX003 (ip), vehicle: Klucel (hydroxypropylcellulose) (HPC)
[11] = dose: 400.0 mg/kg/injection, schedule: Q01DX001 (ip), vehicle: Klucel (hydroxypropylcellulose) (HPC)
[12] = dose: 400.0 mg/kg/injection, schedule: Q04DX003 (ip), vehicle: Klucel (hydroxypropylcellulose) (HPC)
[13] = dose: 100.0 mg/kg/injection, schedule: Q01DX009 (ip), vehicle: saline with Tween-80
[14] = dose: 100.0 mg/kg/injection, schedule: Q01DX001 (ip), vehicle: saline
[15] = dose: 200.0 mg/kg/injection, schedule: Q01DX001 (ip), vehicle: saline
[16] = dose: 400.0 mg/kg/injection, schedule: Q01DX001 (ip), vehicle: saline
[17] = dose: 50.0 mg/kg/injection, schedule: Q01DX009 (ip), vehicle: saline

Measured: T/C

NS(=O)(=O)c1ccc(N/N=c2\c(=O)c(=O)c3ccccc3c2=O)cc1
inactive: dose: 100.0 mg/kg/injection, schedule: Q01DX001 (ip), vehicle: other 101 % of control | dose: 100.0 mg/kg/injection, schedule: Q04DX003 (ip), vehicle: other 95 % of control | dose: 200.0 mg/kg/injection, schedule: Q01DX001 (ip), vehicle: other 90 % of control | dose: 200.0 mg/kg/injection, schedule: Q04DX003 (ip), vehicle: other 108 % of control | dose: 400.0 mg/kg/injection, schedule: Q01DX001 (ip), vehicle: other 93 % of control | dose: 400.0 mg/kg/injection, schedule: Q04DX003 (ip), vehicle: other 90 % of control

O=C(O)CCCC[P+](c1ccccc1)(c1ccccc1)c1ccccc1
inactive: [1] 98 % of control | [2] 105 % of control | dose: 200.0 mg/kg/injection, schedule: Q01DX009 (ip), vehicle: saline 100 % of control | [3] 107 % of control | [4] 102 % of control

C=C(C)C1CC=C(C=O)CC1 (configuration not stated)
inactive: [5] 93 % of control | [6] 94 % of control | [7] 101 % of control | [8] 92 % of control | [9] 109 % of control | [10] 98 % of control | [11] 92 % of control | [12] 101 % of control

CCC1(c2ccccc2)OC1C(=O)OCC(C)C (configuration not stated)
inactive: dose: 100.0 mg/kg/injection, schedule: Q04DX002 (ip), vehicle: saline 112 % of control | dose: 200.0 mg/kg/injection, schedule: Q04DX002 (ip), vehicle: saline 97 % of control | dose: 400.0 mg/kg/injection, schedule: Q04DX002 (ip), vehicle: saline 101 % of control

NC(=O)/C=C/NC(=O)/C=N\O
inactive: dose: 12.5 mg/kg/injection, schedule: Q01DX Z (ip), vehicle: saline 97 % of control and 89 % of control | dose: 25.0 mg/kg/injection, schedule: Q01DX Z (ip), vehicle: saline 92 % of control and 93 % of control | dose: 50.0 mg/kg/injection, schedule: Q01DX Z (ip), vehicle: saline 96 % of control and 97 % of control | dose: 100.0 mg/kg/injection, schedule: Q01DX001 (ip), vehicle: carboxymethylcellulose (CMC) 102 % of control | dose: 100.0 mg/kg/injection, schedule: Q01DX Z (ip), vehicle: saline 96 % of control and 100 % of control | dose: 200.0 mg/kg/injection, schedule: Q01DX001 (ip), vehicle: carboxymethylcellulose (CMC) 96 % of control | dose: 200.0 mg/kg/injection, schedule: Q01DX Z (ip), vehicle: saline 97 % of control and 89 % of control | dose: 400.0 mg/kg/injection, schedule: Q01DX001 (ip), vehicle: carboxymethylcellulose (CMC) 91 % of control

Nc1cc(N)c2cccnc2c1O
inactive: dose: 2.0 mg/kg/injection, schedule: Q01DX015 (ip), vehicle: saline 101 % of control | dose: 4.0 mg/kg/injection, schedule: Q01DX015 (ip), vehicle: saline 101 % of control

CCN(CC)C(=O)CCc1ccccc1
inactive: [13] 108 % of control | dose: 200.0 mg/kg/injection, schedule: Q01DX009 (ip), vehicle: saline with Tween-80 100 % of control

CCOc1ccc(/C=N/NC(C)=O)cc1OC
inactive: dose: 50.0 mg/kg/injection, schedule: Q01DX009 (ip), vehicle: saline with Tween-80 95 % of control | [13] 101 % of control

CS1(=O)=CC(=O)CC(c2ccccc2)C1 (configuration not stated)
inactive: [5] 101 % of control | [6] 107 % of control | [7] 106 % of control | [8] 98 % of control | [9] 102 % of control | [10] 104 % of control | [11] 98 % of control | dose: 400.0 mg/kg/injection, schedule: Q01DX009 (ip), vehicle: Klucel (hydroxypropylcellulose) (HPC) 107 % of control | [12] 102 % of control

CC(=O)N(CCN(C)C)Cc1ccccc1
inactive: [14] 98 % of control | [15] 98 % of control

COC(=O)C1C2CC(O)C(C2)C1C(=O)OC (configuration not stated)
inactive: dose: 12.5 mg/kg/injection, schedule: Q04DX003 (ip), vehicle: saline with Tween-80 95 % of control | dose: 25.0 mg/kg/injection, schedule: Q04DX003 (ip), vehicle: saline with Tween-80 103 % of control | dose: 50.0 mg/kg/injection, schedule: Q04DX003 (ip), vehicle: saline with Tween-80 94 % of control

COc1cccc(C=O)c1[N+](=O)[O-]
inactive: dose: 100.0 mg/kg/injection, schedule: Q04DX002 (ip), vehicle: Klucel (hydroxypropylcellulose) (HPC) 104 % of control | dose: 200.0 mg/kg/injection, schedule: Q04DX002 (ip), vehicle: Klucel (hydroxypropylcellulose) (HPC) 108 % of control | dose: 400.0 mg/kg/injection, schedule: Q04DX002 (ip), vehicle: Klucel (hydroxypropylcellulose) (HPC) 97 % of control

COC1OC(COC(=O)c2ccc([N+](=O)[O-])cc2)C2SC12 (configuration not stated)
inactive: [7] 104 % of control | [10] 97 % of control | [12] 97 % of control

O=C1CC(=O)C(Cl)=C1Cl
inactive: dose: 15.0 mg/kg/injection, schedule: Q01DX001 (ip), vehicle: carboxymethylcellulose (CMC) 93 % of control

OCCOc1c(Cl)c(C(Cl)(Cl)Cl)nc2ccccc12
inactive: dose: 25.0 mg/kg/injection, schedule: Q01DX001 (ip), vehicle: Klucel (hydroxypropylcellulose) (HPC) 103 % of control | dose: 50.0 mg/kg/injection, schedule: Q01DX001 (ip), vehicle: Klucel (hydroxypropylcellulose) (HPC) 106 % of control | [5] 106 % of control

Cc1cc(=O)[nH]c(N/N=C2/CCCCC2C)n1 (configuration not stated)
inactive: dose: 50.0 mg/kg/injection, schedule: Q01DX009 (ip), vehicle: Klucel (hydroxypropylcellulose) (HPC) 100 % of control | [6] 95 % of control | [7] 100 % of control | [9] 100 % of control | [10] 97 % of control

O=P(CCCCCCCCCCP(=O)(c1ccccc1)c1ccccc1)(c1ccccc1)c1ccccc1
inactive: [14] 91 % of control | [15] 92 % of control | [16] 92 % of control

CCCNC
inactive: [17] 90 % of control | [1] 100 % of control | [2] 96 % of control | [3] 98 % of control

CCOP(=S)(OCC)Oc1ccc(Sc2ccc(OP(=S)(OCC)OCC)cc2)cc1
inactive: [14] 101 % of control | [15] 101 % of control | [16] 107 % of control

N#[N+]c1c([O-])[nH]c(=S)[nH]c1=O
inactive: dose: 100.0 mg/kg/injection, schedule: Q01DX009 (ip), vehicle: acetone 92 % of control | dose: 100.0 mg/kg/injection, schedule: Q04DX003 (ip), vehicle: acetone 100 % of control | dose: 200.0 mg/kg/injection, schedule: Q01DX009 (ip), vehicle: acetone 96 % of control | dose: 200.0 mg/kg/injection, schedule: Q04DX003 (ip), vehicle: acetone 103 % of control | dose: 400.0 mg/kg/injection, schedule: Q01DX009 (ip), vehicle: acetone 88 % of control | dose: 400.0 mg/kg/injection, schedule: Q04DX003 (ip), vehicle: acetone 94 % of control

C=C(Br)CNC(=O)NCCCl
inactive: [5] 90 % of control | [8] 96 % of control

CC(CN(CCNc1ccccc1)c1ccccc1)c1ccccc1 (configuration not stated)
inactive: dose: 25.0 mg/kg/injection, schedule: Q01DX009 (ip), vehicle: other 102 % of control | dose: 50.0 mg/kg/injection, schedule: Q01DX009 (ip), vehicle: other 105 % of control | dose: 100.0 mg/kg/injection, schedule: Q01DX009 (ip), vehicle: other 100 % of control | [2] 100 % of control | dose: 200.0 mg/kg/injection, schedule: Q01DX009 (ip), vehicle: other 104 % of control | [3] 92 % of control | dose: 300.0 mg/kg/injection, schedule: Q01DX009 (ip), vehicle: other 96 % of control | [4] 86 % of control

S=C1NC(c2ccccc2)NC(c2ccccc2)S1 (configuration not stated)
inactive: dose: 12.0 mg/kg/injection, schedule: Q01DX009 (ip), vehicle: saline 93 % of control | dose: 25.0 mg/kg/injection, schedule: Q01DX009 (ip), vehicle: saline 90 % of control | [17] 90 % of control

N#C/C(=C/c1cccc2ccccc12)C(N)=O
inactive: dose: 100.0 mg/kg/injection, schedule: Q04DX002 (ip), vehicle: saline with Tween-80 98 % of control | dose: 200.0 mg/kg/injection, schedule: Q04DX002 (ip), vehicle: saline with Tween-80 91 % of control | dose: 400.0 mg/kg/injection, schedule: Q04DX002 (ip), vehicle: saline with Tween-80 98 % of control
